Here are results for two compounds from patent US8299020B2, “Antimicrobial peptides and methods of their use” (The Ohio State University Research Foundation, priority 2006, dated 2012).

The nature of data set [1]: solubility in water. The format is physicochemical. To be noted: neutral water.
In data set [2] the test system is gram-negative bacteria. Nature of the data set: bioassay of activity against gram-negative bacteria. The format is cell-based. Here is the method: Antimicrobial activity determination. A qualitative and quantitative bioassay for antimicrobial potency was done using the spot-on-lawn method. An indicator lawn was prepared by pouring 10 ml soft agar (seeded with 200 μl overnight indicator culture) onto tryptose agar as a basal medium, in a petri dish. Escherichia coli K-12 and Lactobacillus plantarum ATCC 8014 were generally used as the gram-negative and gram-positive sensitive indicators, respectively, but other bacteria were tested to determine the OSY-DF antimicrobial spectrum (Table 1). For qualitative tests, aliquots (10 μl) of cell-free culture supernatant (pH 6.5) were spotted on indicator lawns, and the plates were incubated overnight for inhibition area observation. A clear inhibition area of ≧3 mm in diameter was recorded as positive. For the quantitative measurements, the cell-free culture supernatant was twofold serially diluted and dilutions were spotted onto the indicator lawn as just described. Antimicrobial activity was expressed in AU/ml; these values are the reciprocal of the highest dilution displaying a clear zone of inhibition that corresponds to 1 ml of the nondiluted supernatant.
Separation and purification by HPLC of the OSY-DF peptide. […] Elution was monitored at a wavelength of 220 nm, and fractions were collected manually for the antimicrobial activity bioassay. […]

The subject of data set [3] is gram-negative bacteria. To be noted: background statement; cited from earlier work.
Data set [4] has as its system Pseudomonas aeruginosa. To be noted: background statement; cited from earlier work.
The test system of data set [5] is Acinetobacter baumannii. To be noted: background statement; cited from earlier work.

Like-named read-outs stand apart in the source and are kept apart here.

In the case of `C=C1NC(=O)C2CSC(C)C(NC(=O)C3CSC(C)C4NC(=O)[C@H](CC(C)C)NC(=O)C(NC(=O)[C@H](CCCCN)NC(=O)C5CSCC(NC(=O)[C@@H](NC(=O)[C@H](CCCCN)NC(=O)[C@@H](NC(=O)/C(=C/C)NC(=O)/C(=C/C)NC(=O)[C@H](CCCCN)NC(=O)[C@@H](NC(=O)[C@@H](NC(=O)C(=C)NC(=O)[C@H](C)NC(C)=O)[C@@H](C)CC)[C@@H](C)CC)[C@@H](C)CC)C(C)C)C(=O)N[C@@H](CCCCN)C(=O)N[C@@H](C)C(=O)N[C@@H](C(C)C)C(=O)N5)C(C)SCC(NC4=O)C(=O)N[C@@H]([C@@H](C)CC)C(=O)N3)C(=O)NCC(=O)NC(CSCC(C(=O)N[C@@H](CCCCN)C(=O)O)NC(=O)[C@H](CC(N)=O)NC1=O)C(=O)N2` (stereo partly drawn) [Paenibacillin, (CH3CO-^1A)-Dha-I-I-K-Dhb-Dhb-I-K-V-A-K-A-V-A-K-Abu-L-Abu-A-I-A-Abu-G-A-A-Dha-N-A-K^30], the solubility in water result in data set [1] was “easy to dissolve”; in data set [1] (listed as OSY-DF peptide), “readily soluble”.

For the compound polymyxin E1, the “activity against gram-negative bacteria” value in data set [2] is “anti-gram-negative activity”; in data set [3], “specifically active”. For the same compound, the “activity against Pseudomonas aeruginosa” value in data set [4] is “active”. Besides, the “activity against Acinetobacter baumannii” value in data set [5] was “active”.
